According to patent US10136641B2, “Methods for increasing tolerance to abiotic stress in plants” (Crop Microclimate Management Inc., priority 2010, dated 2018):

Columns and labels:
Assay type in all cases: in vivo
tomatoes = test: Tomato pot study with sebacic acid (high heat, light and water stress)
Procedure: A tomato pot study was conducted with sebacic acid to determine the activity of sebacic acid in increasing tolerance to abiotic stress. The tomatoes were grown in a standard medium in pots and subjected to the abiotic stresses of high heat, light, and water stress. Growth of the plants was used as a measure of the ability of the sebacic acid to reduce the impact of abiotic stress. Growth measurements were taken 32 days after treatment with sebacic acid

citrus = test: Citrus field trial (heat, light and/or water stress), Cobram, Victoria
Procedure: (§1) Field trials were carried out in parts of commercial orchards or fields in Australia during the 2009-2010 season. Crops were evaluated for specific parameters impacted by abiotic stress including fruit diameter, fruit number, amount of sunburn damage and number of flowers aborted. The crops evaluated were apple, citrus, tomato and wine grape. […] Heat and light stress occurred early during the trials, with exposures to 40° C.^+ temperatures in November; about 4-6 weeks after the trials were initiated. This period of stress was followed by varied temperatures including temperatures that were in the mid-to-high 30° C. range.
(§2) The foliage and fruit for each crop were assessed prior to treatment and then at regular intervals through the season for any signs of phytotoxicity. No phytotoxicity was observed on either the foliage or the fruit for any of the applied formulations for any of the crops. In addition, all trials were determined to be disease and pest free.
(§3) Screen (kaolin), Screen Duo (kaolin and salicylate), Surround (kaolin) and Parasol (calcium carbonate) are standard treatments used in the management of heat, light and water stress. Kaolin and calcium carbonate reduce stress by reflecting UV, visible, and infrared radiation, thereby reducing the impact of excess heat and light on photosynthesis and other cellular processes.
(§4) The citrus and apple trials received four and five applications, respectively, of the various formulations, set forth in Table 1 (below), prior to experiencing abiotic stress. Tomatoes received biweekly applications of the treatments throughout the trial.
In general, a lower fruit load results in greater fruit diameter at harvest. Early season differences in fruit diameter are due to variation in cell division. It is well documented that at equal fruit load, heat stress will result in smaller fruit (i.e., reduced fruit diameter). In addition, heat, light, and/or water stress can also result in fruit number losses, commonly known in citrus as “June drop.” Past studies indicate that protecting the crop with Screen/Duo starting at petal fall can result in larger fruit and higher numbers of fruit, most likely by reducing the crop temperature and reducing stress signaling reactive oxygen (ROX).
The trial described below was conducted in Cobram, Victoria, Australia. Several parameters were measured as responses to heat, light and/or water stress: early citrus fruit diameter, number of fruit per cubic meter foliage, percent sunburn, later season fruit diameter and kilograms of fruit per cubic meter foliage. Sunburn damage is the late stage result of combined heat and light stress. […] There was little correlation observed between fruit number and fruit size (correlation […]).

wine grape = test: Wine grape field trial (sunburn/heat stress, yield), Kialla, Victoria
Procedure: as §1, §2, §3
The trial described below was conducted in Kialla, Victoria, Australia. The trial design was a randomized complete block with four replicates. Each plot comprises one panel of vines having four vines. For yield measurements the grapes were harvested from each of the two center vines in each panel and bunch numbers and weights were recorded. For assessment of sunburn/heat stress damage, the bunches of grapes were rated according to the following system: […]

apple = test: Apple field trial (heat, light and/or water stress), Shepparton, Victoria
Procedure: as §1, §2, §3, §4
As described above for citrus, early season heat, light and/or water stress can also impede cell division that occurs during Phase I of fruit development of apples. In the apple trial, which was conducted in Shepparton, Victoria, Australia, the load of fruit on each of the trees was thinned to an approximately equal value (approximately 200 fruit per tree; +/−5%), thus eliminating the confounding effect of fruit load on fruit diameter. To assess sunburn/heat stress damage, all apples were harvested from the center tree in each plot and rated according to the following rating system.
Rating Visual Assessment of the Fruit
1 Slight yellowing on the exposed side (<5% of the fruit area)
2 Noticeable yellowing on the exposed side (>5% of the fruit area)
3 Moderate sunburn with pronounced lenticels (fruit unmarketable)
4 Significant sunburn (fruit unmarketable)

Tomato plants = test: Tomato pot trial, heat and light stress in the greenhouse; conditions: for Avg. growth in cm. (tomato fruits exposed to heat and light stress): April 2-May 10; for Avg growth in cm. (tomato fruits exposed to heat and light stress): April 2-May 18
Procedure: Tomato plants were exposed to heat and light stress in the greenhouse. Control plants had no treatment or were treated with Screen, Screen Plus1, Screen Plus2, or Screen Plus3, The experimental plants were treated with azelaic acid at 10^−4 M or 10^−3 M applied alone or in combination with Screen, Screen Plus1, Screen Plus2, or Screen Plus3.

tomato = test: Tomato field trial (flower abortion, sunburn, yield), Echuca, Victoria
Procedure: as §1
The foliage and fruit for each crop were assessed prior to treatment and then at regular intervals through the season for any signs of phytotoxicity.
Kaolin and calcium carbonate reduce stress by reflecting UV, visible, and infrared radiation, thereby reducing the impact of excess heat and light on photosynthesis and other cellular processes.
as §4
Flower abortion in tomato results in significant yield losses in tomato and begins at temperatures of 28 C, becoming more severe as temperatures rise. Further, once fruit has developed, it is susceptible to damage from heat and light, expressed as sunburn.
In the present study, tomatoes, located in a commercial field outside Echuca, Victoria, Australia, were treated with azeleic acid (CMM2009A). The number of aborted flowers per plot was assessed periodically during the season. Tomato yield and sunburn damage was assessed as follows. Tomatoes from the center of each plot were harvested from a one meter section of the tomato beds. The fruit was visually assessed as being either red in color and suitable for processing, green in color, or sun burnt. The fruit from these three categories were kept separate, weighed and recorded.

[1] = citrus, versus standard treatments
[2] = wine grape field trial, 10 Mar. 2010, four applications
[3] = apple field trial, rates per Table 3
[4] = azelaic at 10^−4M where applied, Screen applications at rate equivalent of 25 kg/ha

## sebacic acid (decanedioic acid)
tomatoes; tomato plants in pots, 1 × 10−4M, 32 days after treatment, high heat, light and water stress
  Growth (mm): 25.3 mm
tomatoes; tomato pot trial, Table 7
  Growth compared with the untreated plants (in words): statistically significant greater growth

## O=C(O)CCCCCCCC(=O)O [Azeleic acid, azelaic acid (nonanedioic acid)]
citrus; citrus field trial, 6 Jan. 2010, per cubic meter foliage, four applications, rates per Table 2
  Fruit Number per cubic meter: 10.62 per cubic meter
citrus; citrus field trial, 12 Apr. 2010 (later season), four applications, rates per Table 2
  Fruit Diameter (mm): 71.59 mm
citrus; citrus field trial, 14 Dec. 2010 (early fruit diameter), four applications, rates per Rate column of Table 2
  Fruit Diameter (mm): 29.49 mm
citrus; citrus field trial, 28 Jan. 2010, four applications, rates per Table 2
  Percent Sunburn: 5.6%
citrus; citrus field trial, 29 Sep. 2010, kilograms of fruit, four applications, rates per Table 2
  kgs/cubic meter of foliage: 3.8 kgs/cubic meter of foliage
citrus; citrus, azelaic acid alone versus Screen, Screen Duo, Surround and Parasol
  Protecting cell division, as measured by early fruit diameter (in words): as effective as the standard treatments
citrus; [1]
  Protection from sunburn damage (in words): equal to that obtained using the standard treatments
  Reducing fruit loss (in words): as effective in reducing fruit loss
Wine grape; wine grape field trial, 10 Mar. 2010, average weight of a bunch, four applications
  Bunch Weight (grams): 94.7 grams
Wine grape; [2]
  Yield kg/ha: 9230 kg/ha
  Yield kg/vine: 3.6 kg/vine
Wine grape; wine grape field trial, 10 Mar. 2010, rating 1 = 0%, 2 = 1-5% incidence of sunburn/heat stress on bunches, four applications, rates per Table 6
  % Bunches Rating 1 + 2: 96.8%
Wine grape; wine grape, alone or in combination with salicylate, kaolin, or combinations thereof
  Protection from heat, water and light stress (bunch rating, yield, bunch weight; in words): equivalent to or better than the standard treatments
apple; apple field trial, 12 Dec. 2010, fruit load thinned to approx. 200 fruit per tree, rates per Table 3
  Fruit Diameter (mm): 39.84 mm
apple; apple field trial, 16 Feb. 2010, 1&2 are export grade or commercially acceptable grade apples, rates per Table 3
  % Fruit Sunburn 1&2: 87.4%
apple; apple field trial, 17 Mar. 2010, rates per Table 3
  Yield kg/tree: 42.8 kg/tree
apple; [3]
  Apple Size g/apple: 152 g/apple
  Marketable Yield kg/tree: 37.4 kg/tree
apple; apple, alone or in combination with kaolin, salicylate, glycine betaine, or multiples thereof
  Protecting cell division as measured by fruit diameter, percent sunburn, apple size, yield and marketable yield (in words): as effective as the standard treatments
Tomato plants; azelaic at 10^−3M, no Screen
  Avg. growth in cm. (tomato fruits exposed to heat and light stress): 8.0 cm
  Avg growth in cm. (tomato fruits exposed to heat and light stress): 6.1 cm
Tomato plants; [4]
  Avg. growth in cm. (tomato fruits exposed to heat and light stress): 11.0 cm
  Avg growth in cm. (tomato fruits exposed to heat and light stress): 8.7 cm
Tomato plants; tomato pot trial, azelaic acid at 10^−4 M
  Protection from the abiotic stress as measured by average fruit size (in words): equivalent to or better than the standard treatments
tomato; 12 Mar. 2010, red fruit suitable for processing, ten applications
  Yield Red MT/ha: 131 MT/ha
tomato; 12 Mar. 2010, sun burnt fruit, ten applications
  Yield Sunburn MT/ha: 6.6 MT/ha
tomato; 12 Mar. 2010, ten applications
  Soluble Solids MT/ha: 6.2 MT/ha
  Total Yield MT/ha: 137.6 MT/ha
tomato; 20 Feb. 2010, ten applications, rates per Table 4
  Number Sunburn Fruit per plot: 21.3 per plot
tomato; 20 Jan. 2010, ten applications, rates per Table 4
  Aborted Flowers per sq m of the plot: 5 per sq m of the plot
tomato; alone or in combination with salicylate, kaolin, glycine betaine
  Protection from sunburn damage (in words): equivalent to or better than the standard treatments
tomato; versus standard treatments
  Number of flowers aborted (in words): reduce the number of flowers aborted to the same degree as the standard treatments
